The values that follow come from ChEMBL document CHEMBL1134117, “Synthesis of substituted 5[H]phenanthridin-6-ones as potent poly(ADP-ribose)polymerase-1 (PARP1) inhibitors” (Bioorg Med Chem Lett, 2001).

Where only a bound is given, the exact number is not on record here.

In this assay the target is Poly [ADP-ribose] polymerase 1 (Homo sapiens, UniProt P09874). The assay is described as follows: Inhibitory concentration against purified recombinant human Poly (ADP-ribose) polymerase 1.
Poly [ADP-ribose] polymerase 1, sequence (P09874 whole entry): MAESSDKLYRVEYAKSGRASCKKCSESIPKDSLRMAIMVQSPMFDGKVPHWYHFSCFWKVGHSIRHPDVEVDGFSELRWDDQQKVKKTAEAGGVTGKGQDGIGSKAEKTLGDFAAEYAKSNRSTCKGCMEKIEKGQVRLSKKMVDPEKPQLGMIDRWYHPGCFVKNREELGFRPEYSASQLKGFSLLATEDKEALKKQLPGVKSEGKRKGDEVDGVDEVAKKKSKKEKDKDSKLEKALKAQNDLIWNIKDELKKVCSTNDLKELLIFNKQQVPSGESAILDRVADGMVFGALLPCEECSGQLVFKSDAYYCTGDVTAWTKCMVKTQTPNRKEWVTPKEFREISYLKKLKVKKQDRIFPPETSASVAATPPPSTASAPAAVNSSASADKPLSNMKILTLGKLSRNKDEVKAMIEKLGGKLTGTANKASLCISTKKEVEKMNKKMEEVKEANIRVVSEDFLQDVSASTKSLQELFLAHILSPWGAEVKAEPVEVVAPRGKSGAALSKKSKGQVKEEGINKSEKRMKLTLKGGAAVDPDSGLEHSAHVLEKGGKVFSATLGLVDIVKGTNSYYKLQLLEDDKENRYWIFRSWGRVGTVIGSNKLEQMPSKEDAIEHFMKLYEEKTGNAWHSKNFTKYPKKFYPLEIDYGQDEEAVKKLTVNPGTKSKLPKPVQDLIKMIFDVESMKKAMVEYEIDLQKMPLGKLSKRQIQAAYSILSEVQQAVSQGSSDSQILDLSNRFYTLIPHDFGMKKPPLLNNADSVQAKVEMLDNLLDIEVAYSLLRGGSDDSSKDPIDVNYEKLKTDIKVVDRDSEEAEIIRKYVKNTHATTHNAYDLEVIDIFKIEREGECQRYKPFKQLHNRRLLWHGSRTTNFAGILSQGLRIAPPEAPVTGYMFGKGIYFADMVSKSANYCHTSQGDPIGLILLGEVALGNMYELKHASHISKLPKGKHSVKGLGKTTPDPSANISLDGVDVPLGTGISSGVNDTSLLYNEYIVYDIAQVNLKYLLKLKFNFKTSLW
As to `O=C(O)c1ccc2c(c1)[nH]c(=O)c1ccccc12`, the IC50 came out at 57 nM. Take `Cc1cccc2c(O)nc3cc(F)ccc3c12`: the IC50 amounted to 92 nM.

In the case of `O=S(=O)(O)c1ccc2c(c1)nc(O)c1cc(S(=O)(=O)O)ccc12`, the IC50 was above 100000 nM. To `Nc1cc2[nH]c(=O)c3ccccc3c2cc1N` belongs 180 nM. For the compound `O=c1[nH]c2ccc([N+](=O)[O-])cc2c2ccccc12`, the IC50 is 156 nM. On to `Cc1cccc2c(=O)[nH]c3cc(C(F)(F)F)c([N+](=O)[O-])cc3c12`, for which the IC50 was 136 nM. As for `O=c1[nH]c2cc(S(=O)(=O)O)ccc2c2ccc(F)cc12`, the figure is 10 nM. To `O=c1[nH]c2ccccc2c2ccccc12` belongs 520 nM; to `Nc1ccc2[nH]c(=O)c3ccccc3c2c1`, 180 nM. With `O=C(O)c1cccc2c(O)nc3ccccc3c12`, the IC50 is above 60000 nM.

By IC50 is commonly meant the midpoint of a concentration-inhibition curve.
